Results: ChEMBL document CHEMBL5233249, “Recent advancements in the development of heterocyclic anti-inflammatory agents” (Eur J Med Chem, 2020)
≈ marks a conversion by molar mass, not a printed value.

Assays:
[1] = tested on: RAW264.7; experiment: Anti-inflammatory activity in mouse RAW264.7 cells assessed as inhibition of LPS-induced TNFalpha production measured after 24 hrs by EIA method relative to control; format: functional; set-up: scale not given: the % may be the effect or the level left
[2] = tested on: RAW264.7; experiment: Anti-inflammatory activity in mouse RAW264.7 cells assessed as inhibition of LPS-induced reduction in TNFalpha production; format: functional, cell-based
[3] = Cytotoxicity against mouse RAW264.7 cells assessed as decreased cell viability measured after 24 hrs by MTT assay; format: toxicity, cell-based
[4] = tested on: BV-2; experiment: Antineuroinflammatory activity against mouse BV-2 cells assessed as inhibition of LPS-induced NO production by Griess assay relative to control; format: functional; set-up: scale not given: the % may be the effect or the level left
[5] = tested on: Rattus norvegicus; experiment: Anti-inflammatory activity in Carrageenan-induced paw edema in Wistar albino rat assessed as inhibition of paw edema measured after 3 hr relative to control; format: functional
[6] = tested on: RAW264.7; experiment: Anti-inflammatory activity in mouse RAW264.7 cells assessed as decreased production of LPS-induced IL-1beta production; format: functional
[7] = biological target: T1, Prostaglandin G/H synthase 2 (Homo sapiens, UniProt P35354); experiment: Inhibition of COX-2 (unknown origin) at 0.1 uM
T1 sequence (P35354 whole entry): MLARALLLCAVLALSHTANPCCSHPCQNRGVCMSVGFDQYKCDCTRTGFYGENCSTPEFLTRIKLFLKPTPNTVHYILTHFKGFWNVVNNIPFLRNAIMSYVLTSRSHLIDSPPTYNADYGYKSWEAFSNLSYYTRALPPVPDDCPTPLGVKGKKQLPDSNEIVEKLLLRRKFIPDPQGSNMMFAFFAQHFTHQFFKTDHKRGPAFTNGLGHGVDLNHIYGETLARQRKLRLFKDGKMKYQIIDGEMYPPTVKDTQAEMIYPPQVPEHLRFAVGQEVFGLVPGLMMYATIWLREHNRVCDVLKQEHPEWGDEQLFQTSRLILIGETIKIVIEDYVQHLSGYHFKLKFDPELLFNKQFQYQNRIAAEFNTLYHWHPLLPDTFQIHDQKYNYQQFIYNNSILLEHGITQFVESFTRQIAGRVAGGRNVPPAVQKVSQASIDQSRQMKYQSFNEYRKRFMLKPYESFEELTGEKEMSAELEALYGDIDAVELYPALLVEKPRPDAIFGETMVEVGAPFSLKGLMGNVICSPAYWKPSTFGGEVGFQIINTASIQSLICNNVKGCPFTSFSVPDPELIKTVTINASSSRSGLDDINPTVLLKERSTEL

[8] = tested on: RAW264.7; experiment: Anti-inflammatory activity in mouse RAW264.7 cells assessed as decreased production of LPS-induced IL-6 production; format: functional
[9] = tested on: RAW264.7; experiment: Anti-inflammatory activity in mouse RAW264.7 cells assessed as decreased production of LPS-induced TNFalpha production; format: functional; conditions: read-out: ED50 (the source's name)
[10] = tested on: Rattus norvegicus; experiment: Anti-inflammatory activity in Carrageenan-induced paw edema in Wistar albino rat assessed as inhibition of paw edema measured after 6 hr relative to control; format: functional
[11] = tested on: Rattus norvegicus; experiment: Anti-inflammatory activity in Carrageenan-induced paw edema in Wistar albino rat assessed as inhibition of paw edema measured after 1 hr relative to control; format: functional

SMILES | Activity [1] [%] | IC50 [2] [µM] | CC50 at 24 h [3] [µM] | Activity [4] [%] | inhibition (INH) [5] [%] | Activity [6] [ng/mL] | IC50 [7] [µM] | Activity [8] [ng/mL] | EC50 [9] [µg/mL] | inhibition (INH) [10] [%] | inhibition (INH) [11] [%]
CCc1ccc(C/C=C2\CCOc3cc(OC)cc(OC)c3C2=O)cc1 | 96.4 | 5.2 | 43.6 | 87.9 | – | – | – | – | – | – | –
COc1ccc(C2=NNC(S)C2N(CN2C(=O)/C(=C\c3nnc(-c4ccc(-c5ccc(OC)cc5)cc4)s3)c3ccccc32)C(=O)c2ccccc2)cc1 (stereo unspecified) | – | – | – | – | 52.63 | 35.1 | 53.1 | 102.1 | 0.0559 (≈ 0.0744 µM) | 57.14 | 50
